System: NOMO1
Assay: cell viability relative to DMSO control; higher = less cytotoxic
Details: 48 h
Summary of the method: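 Viability values are per-plate percentages of DMSO wells, with background from cell-free wells. Library compounds in DMSO were pin-dosed, in an 11-point threefold series from 47 μM to 0.79 nM, onto NOMO1 or SEM (500 cells/well) or P12-Ichikawa (1000 cells/well) leukemia cells in 1536-well plates (5 μl). Those cells had been adapted for at least four passages in each medium, and CellTiter-Glo One luminescence was read after 48 h at 37°C.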

[1] = HPLM + 10% dialyzed FBS, 0.000781 µM
[2] = HPLM + 10% dialyzed FBS, 0.00234 µM
[3] = HPLM + 10% dialyzed FBS, 0.00702 µM
[4] = HPLM + 10% dialyzed FBS, 0.0211 µM
[5] = HPLM + 10% dialyzed FBS, 0.0632 µM
[6] = HPLM + 10% dialyzed FBS, 0.19 µM
[7] = HPLM + 10% dialyzed FBS, 0.569 µM
[8] = HPLM + 10% dialyzed FBS, 1.71 µM
[9] = HPLM + 10% dialyzed FBS, 5.12 µM
[10] = HPLM + 10% dialyzed FBS, 15.4 µM
[11] = HPLM + 10% dialyzed FBS, 46.1 µM
[12] = RPMI 5 mM glucose + 10% FBS, 0.000781 µM
[13] = RPMI 5 mM glucose + 10% FBS, 0.00234 µM
[14] = RPMI 5 mM glucose + 10% FBS, 0.00702 µM
[15] = RPMI 5 mM glucose + 10% FBS, 0.0211 µM
[16] = RPMI 5 mM glucose + 10% FBS, 0.0632 µM
[17] = RPMI 5 mM glucose + 10% FBS, 0.19 µM
[18] = RPMI 5 mM glucose + 10% FBS, 0.569 µM
[19] = RPMI 5 mM glucose + 10% FBS, 1.71 µM
[20] = RPMI 5 mM glucose + 10% FBS, 5.12 µM
[21] = RPMI 5 mM glucose + 10% FBS, 15.4 µM
[22] = RPMI 5 mM glucose + 10% FBS, 46.1 µM
[23] = RPMI 5 mM glucose + 10% dialyzed FBS, 0.000781 µM
[24] = RPMI 5 mM glucose + 10% dialyzed FBS, 0.00234 µM
[25] = RPMI 5 mM glucose + 10% dialyzed FBS, 0.00702 µM
[26] = RPMI 5 mM glucose + 10% dialyzed FBS, 0.0211 µM
[27] = RPMI 5 mM glucose + 10% dialyzed FBS, 0.0632 µM
[28] = RPMI 5 mM glucose + 10% dialyzed FBS, 0.19 µM
[29] = RPMI 5 mM glucose + 10% dialyzed FBS, 0.569 µM
[30] = RPMI 5 mM glucose + 10% dialyzed FBS, 1.71 µM
[31] = RPMI 5 mM glucose + 10% dialyzed FBS, 5.12 µM
[32] = RPMI 5 mM glucose + 10% dialyzed FBS, 15.4 µM
[33] = RPMI 5 mM glucose + 10% dialyzed FBS, 46.1 µM

Structure (SMILES)	cell viability [1] [%]	cell viability [2] [%]	cell viability [3] [%]	cell viability [4] [%]	cell viability [5] [%]	cell viability [6] [%]	cell viability [7] [%]	cell viability [8] [%]	cell viability [9] [%]	cell viability [10] [%]	cell viability [11] [%]	cell viability [12] [%]	cell viability [13] [%]	cell viability [14] [%]	cell viability [15] [%]	cell viability [16] [%]	cell viability [17] [%]	cell viability [18] [%]	cell viability [19] [%]	cell viability [20] [%]	cell viability [21] [%]	cell viability [22] [%]	cell viability [23] [%]	cell viability [24] [%]	cell viability [25] [%]	cell viability [26] [%]	cell viability [27] [%]	cell viability [28] [%]	cell viability [29] [%]	cell viability [30] [%]	cell viability [31] [%]	cell viability [32] [%]	cell viability [33] [%]
Cc1ncc(OC[C@@]2(c3cccc(F)c3)C[C@H]2C(=O)Nc2ccc(F)cn2)c(C)n1	108	106	122	120	125	129	117	105	120	117	108	105	93.8	125	92.7	105	113	107	92.2	102	101	116	102	107	105	106	119	110	97	101	112	110	116
OCc1ccc(-c2nn(Cc3ccccc3)c3ccccc23)o1	120	101	120	127	108	101	111	64.6	91.6	38.5	9	104	111	104	102	95.4	96.4	96.8	93.4	98.6	38	8.67	110	105	105	113	107	105	107	89.6	81.6	42.4	7.56
CC(=O)Nc1ccc([C@H](C)C(=O)Nc2ncc(C(C)C)s2)cc1	109	123	97.2	99	106	103	119	96.8	79.1	6.43	4.34	88.4	99.9	84.9	90.8	110	93.6	104	84.5	44.6	9.84	4.44	104	93.5	96.3	100	95.2	92	95.4	104	68.2	8.22	4.09
Cc1cc(Nc2nc(N[C@@H](C)c3ncc(F)cn3)ncc2Cl)n[nH]1	89.6	95	113	124	113	113	109	63.3	19.9	19.5	28.5	114	126	117	124	114	123	125	116	98.4	19.5	15.7	108	119	105	127	127	120	126	135	112	38.3	23.8
